Test results reported in article PMC7230731 (Marine Drugs, 2020).

Tests used:
MCF-7 cells = assay: SRB antiproliferative assay, MCF-7; assay type: cell-based, human; conditions: for IC50: MCF-7 breast cancer cells, SRB assay, 48 h, mean ± S.D. of three experiments; for potency relative to Staurosporine, MCF-7: ratio of IC50 values, MCF-7 cells
Method: (§1) 1. Anti-proliferative action toward human breast cell lines […]
(§2) and non-tumorigenic human breast epithelial cell line (MCF-10A) have been obtained from American Type Culture Collection (ATCC). The cells were maintained in Dulbecco's modified Eagle's medium (DMEM) supplemented with 10% heat inactivated fetal calf serum (GIBCO), penicillin (100 U/ml) and streptomycin (100 µg/ml) at 37 °C in humidified atmosphere containing 5% CO2. […]
(§3) grown in a 25 cm2 flask in 5 ml of culture medium.
(§4) The anti-proliferative activity of the tested compounds was measured in vitro using the Sulfo-Rhodamine-B stain (SRB) assay. Briefly, Cells were inoculated in 96-well microtiter plate (5X104 cells/ well) for 24 h before treatment with the tested compounds to allow attachment of cell to the wall of the plate. Tested compounds were dissolved in DMSO at 1 mg/ml immediately before use and diluted to the appropriate volume just before addition to the cell culture. Different concentrations of tested compounds, doxorubicin and sorafenib were added to the cells (three wells were prepared for each […]
(§5) atmosphere of 5% CO2. After 48 h cells were fixed, washed, and stained for 30 min with 0.4% (w/v) SRB dissolved in 1% acetic acid. Unbound dye was removed by four washes with 1% acetic acid, and attached stain was recovered with Tris-EDTA buffer. Color intensity was measured in an ELISA reader. The relation between percent of surviving fraction and drug concentration is plotted to get the survival curve for each cell line. […]

MDA-MB-231 cells = assay: SRB antiproliferative assay, MDA-MB-231; assay type: cell-based, human; conditions: for IC50: MDA-MB-231 triple-negative breast cancer cells, SRB assay, 48 h, mean ± S.D. of three experiments; for potency relative to Staurosporine, MDA-MB-231 / potency relative to non-brominated counterpart (9g vs 9d, 9h vs 9e), MDA-MB-231: ratio of IC50 values, MDA-MB-231 cells
Method: as §1, §2, §3, §4, §5

MCF-10A cells = assay: SRB cytotoxicity assay, non-tumorigenic MCF-10A; assay type: cell-based, human; conditions: for Selectivity Index MCF-10A/MCF-7: IC50 MCF-10A / IC50 MCF-7; for IC50: non-tumorigenic human breast epithelial MCF-10A cells, SRB assay
Description: The two examined human breast cancer cell lines (MCF-7 and Breast MDA-MB-231), and non-tumorigenic human breast epithelial cell line (MCF-10A) have been obtained from the American Type Culture Collection (ATCC). Assessment of cytotoxicity for target indole derivatives has been performed following the SRB colorimetric assay procedures, as reported earlier.
1. Anti-proliferative action toward human breast cell lines
The two examined human breast cancer cell lines (MCF-7 and Breast MDA-MB-231), and non-tumorigenic human breast epithelial cell line (MCF-10A) have been obtained from American Type Culture Collection (ATCC). The cells were maintained in Dulbecco's modified Eagle's medium (DMEM) supplemented with 10% heat inactivated fetal calf serum (GIBCO), penicillin (100 U/ml) and streptomycin (100 µg/ml) at 37 °C in humidified atmosphere containing 5% CO2. Cells at a concentration of 0.50 x 106 were grown in a 25 cm2 flask in 5 ml of culture medium.
The anti-proliferative activity of the tested compounds was measured in vitro using the Sulfo-Rhodamine-B stain (SRB) assay. Briefly, Cells were inoculated in 96-well microtiter plate (5X104 cells/ well) for 24 h before treatment with the tested compounds to allow attachment of cell to the wall of the plate. Tested compounds were dissolved in DMSO at 1 mg/ml immediately before use and diluted to the appropriate volume just before addition to the cell culture. Different concentrations of tested compounds, doxorubicin and sorafenib were added to the cells (three wells were prepared for each individual dose). Cells were incubated with the compounds for 48 h at 37°C and in atmosphere of 5% CO2. After 48 h cells were fixed, washed, and stained for 30 min with 0.4% (w/v) SRB dissolved in 1% acetic acid. Unbound dye was removed by four washes with 1% acetic acid, and attached stain was recovered with Tris-EDTA buffer. Color intensity was measured in an ELISA reader. The relation between percent of surviving fraction and drug concentration is plotted to get the survival curve for each cell line. […]

CDK2 = target: T1, CDK2 (Homo sapiens, UniProt P24941); assay: CDK2 kinase inhibition (Reaction Biology HotSpot); assay type: biochemical; conditions: single dose of 10 µM; for % Enzyme Inhibitory Activity: 10 µM; for inhibition at 10 µM: read-out: % Enzyme Inhibitory Activity
T1 construct: purchased Reaction Biology Corp. (Kinase HotSpot service)
Method: The in vitro CDK2 kinase inhibition assay was carried out by Reaction Biology Corp. (Reaction Biology Corp., Chester, PA, USA) Kinase HotSpotSM service (http://www.reactionbiology.com).
5. CDK2 kinase inhibitory activity
Reaction Biology Corp. Kinase HotSpotSM service
(http://www.reactionbiology.com) was used for screening of tested compounds. CDK2 Kinase inhibitory activity was assessed by the HotSpot assay platform, which contained specific kinase/substrate pairs along with required cofactors. Base reaction buffer:
0.1 mM Na3VO4, 2 mM DTT, 1% DMSO. Testing compounds were dissolved in 100% DMSO to specific concentration. The serial dilution was conducted by Integra Viaflo Assist in DMSO. The reaction mixture containing the examined compound and 33P-ATP was incubated at room temperature for 2 h and radioactivity was detected by filter-binding method. Kinase activity data were expressed as the percent remaining kinase activity in test samples compared to vehicle (dimethyl sulfoxide) reactions.

IC50 (MCF-7 cells; Homo sapiens, MCF7, 48 h) [µM]	IC50 (MDA-MB-231 cells; Homo sapiens, MDA-MB-231, 48 h) [µM]	% Enzyme Inhibitory Activity (CDK2) [%]	inhibition at 10 µM (CDK2) [%]	melting point [°C]	Compound	potency relative to Staurosporine, MCF-7 (MCF-7 cells) [times]	Selectivity Index MCF-10A/MCF-7 (MCF-10A cells)	IC50 (MCF-10A cells) [µM]	potency relative to Staurosporine, MDA-MB-231 (MDA-MB-231 cells) [times]	IC50 (MCF-7 cells) [µM]	potency relative to non-brominated counterpart (9g vs 9d, 9h vs 9e), MDA-MB-231 (MDA-MB-231 cells) [times]	IC50 (MDA-MB-231 cells) [µM]
1.53 ± 0.02	9.04 ± 0.32	41	44	281 to 283	O=C(Cc1c[nH]c2ccccc12)NN=C1C(=O)Nc2ccc(F)cc21 [Compound 7a, N′-(5-Fluoro-2-oxoindolin-3-ylidene)-2-(1H-indol-3-yl)acetohydrazide]	4.45	9.2	14.1				
8.87 ± 0.43	2.88 ± 0.08	41	44	292 to 294	O=C(Cc1c[nH]c2ccccc12)NN=C1C(=O)Nc2ccc(Cl)cc21 [Compound 7b, N′-(5-Chloro-2-oxoindolin-3-ylidene)-2-(1H-indol-3-yl)acetohydrazide]		4.5	39.5				
36.2 ± 2.78	36.6 ± 1.81			> 300	O=C(Cc1c[nH]c2ccccc12)NN=C1C(=O)Nc2ccc(Br)cc21 [Compound 7c, N′-(5-Bromo-2-oxoindolin-3-ylidene)-2-(1H-indol-3-yl)acetohydrazide]							
11 ± 0.81	0.34 ± 0.02		58	> 300	Cc1ccc2c(c1)C(=NNC(=O)Cc1c[nH]c3ccccc13)C(=O)N2 [Compound 7d, 2-(1H-Indol-3-yl)-N′-(5-methyl-2-oxoindolin-3-ylidene)acetohydrazide]		5.0	54.9	30.3			
> 100	77.3 ± 6.21			294 to 296	Cc1cc(C)c2c(c1)C(=NNC(=O)Cc1c[nH]c3ccccc13)C(=O)N2 [Compound 7f, N′-(5,7-Dimethyl-2-oxoindolin-3-ylidene)-2-(1H-indol-3-yl)acetohydrazide]					> 100		
28.2 ± 1.53	51.3 ± 3.59			207 to 208	CCCN1C(=O)C(=NNC(=O)Cc2c[nH]c3ccccc23)c2ccccc21 [Compound 9b, 2-(1H-Indol-3-yl)-N′-(2-oxo-1-propylindolin-3-ylidene)acetohydrazide]							
1.51 ± 0.03	4.14 ± 0.19			223 to 225	O=C(Cc1c[nH]c2ccccc12)NN=C1C(=O)N(Cc2ccccc2)c2ccccc21 [Compound 9d, N′-(1-Benzyl-2-oxoindolin-3-ylidene)-2-(1H-indol-3-yl)acetohydrazide]	4.5	12.7	19.1	2.5			
10.4 ± 0.81	17.7 ± 0.55			227 to 229	O=C(Cc1c[nH]c2ccccc12)NN=C1C(=O)N(Cc2ccc(F)cc2)c2ccccc21 [Compound 9e, N′-(1-(4-Fluorobenzyl)-2-oxoindolin-3-ylidene)-2-(1H-indol-3-yl)acetohydrazide]		4.7	48.4				
8.72 ± 0.39	25.4 ± 1.56			233 to 234	N#Cc1ccc(CN2C(=O)C(=NNC(=O)Cc3c[nH]c4ccccc34)c3ccccc32)cc1 [Compound 9f, N′-(1-(4-Cyanobenzyl)-2-oxoindolin-3-ylidene)-2-(1H-indol-3-yl)acetohydrazide]		4.8	42				
2.76 ± 0.14	2.85 ± 0.07			210 to 211	O=C(Cc1c[nH]c2ccccc12)NN=C1C(=O)N(Cc2ccccc2)c2ccc(Br)cc21 [Compound 9g, N′-(1-Benzyl-5-bromo-2-oxoindolin-3-ylidene)-2-(1H-indol-3-yl)acetohydrazide]		6.2	17.2			1.5	
20.89 ± 0.04	2.29 ± 0.09			183 to 185	O=C(Cc1c[nH]c2ccccc12)NN=C1C(=O)N(Cc2ccc(F)cc2)c2ccc(Br)cc21 [Compound 9h, N′-(5-Bromo-1-(4-fluorobenzyl)-2-oxoindolin-3-ylidene)-2-(1H-indol-3-yl)acetohydrazide]		1.2	26.1			7.7	
84.7 ± 4.02	> 100			244 to 245	O=C(Cc1c[nH]c2ccccc12)NN=C1CCCc2ccccc21 [Compound 11, N′-(3,4-Dihydronaphthalen-1(2H)-ylidene)-2-(1H-indol-3-yl)acetohydrazide]							> 100
					N′-(1-(sec-Butyl)-2-oxoindolin-3-ylidene)-2-(1H-indol-3-yl)acetohydrazide [Compound 9c]					47.1 ± 3.65		> 100

Compound	IC50 (MCF-7 cells; Homo sapiens, MCF7, 48 h) [µM]	IC50 (MDA-MB-231 cells; Homo sapiens, MDA-MB-231, 48 h) [µM]	% Enzyme Inhibitory Activity (CDK2) [%]	inhibition at 10 µM (CDK2) [%]	melting point [°C]	potency relative to Staurosporine, MCF-7 (MCF-7 cells) [times]	Selectivity Index MCF-10A/MCF-7 (MCF-10A cells)	IC50 (MCF-10A cells) [µM]	potency relative to Staurosporine, MDA-MB-231 (MDA-MB-231 cells) [times]	IC50 (MCF-7 cells) [µM]	potency relative to non-brominated counterpart (9g vs 9d, 9h vs 9e), MDA-MB-231 (MDA-MB-231 cells) [times]	IC50 (MDA-MB-231 cells) [µM]
CN[C@@H]1C[C@H]2O[C@@](C)([C@@H]1OC)n1c3ccccc3c3c4c(c5c6ccccc6n2c5c31)C(=O)NC4 [Staurosporine, reference compound]	6.81 ± 0.22											
